What follows are molecules tested against T1, ICE (Homo sapiens, UniProt P29466) (assay: Enzyme assay with UV-visible substrate (visible ICE assay, Succinyl-Tyr-Val-Ala-Asp-pNitroanilide)). Conditions: Table 5.
T1 sequence (P29466 120-297 limits assumed): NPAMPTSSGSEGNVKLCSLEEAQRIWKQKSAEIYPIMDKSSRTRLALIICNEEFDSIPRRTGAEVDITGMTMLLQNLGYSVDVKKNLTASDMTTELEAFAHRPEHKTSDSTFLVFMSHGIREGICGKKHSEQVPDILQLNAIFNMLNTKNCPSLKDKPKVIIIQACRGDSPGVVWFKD
T1 sequence (P29466 317-404 limits assumed): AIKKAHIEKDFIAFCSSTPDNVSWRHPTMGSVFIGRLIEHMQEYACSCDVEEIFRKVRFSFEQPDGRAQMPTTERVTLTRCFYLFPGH
Type: biochemical
Experimental: 1. Enzyme Assay with Uv-Visible Substrate
This assay is run using an Succinyl-Tyr-Val-Ala-Asp-pNitroanilide substrate. Synthesis of analogous substrates is described by L. A. Reiter (Int. J. Peptide Protein Res. 12, 87-96 (1994)). The assay mixture contains:
The visible ICE assay is run in a 96-well microtiter plate. Buffer, ICE and DMSO (if inhibitor is present) are added to the wells in the order listed. The components are left to incubate at room temperature for 15 minutes starting at the time that all components are present in all wells. The microtiter plate reader is set to incubate at 37° C. After the 15 minute incubation, substrate is added directly to the wells and the reaction is monitored by following the release of the chromophore (pNA) at 405-603 nm at 37° C. for 20 minutes. A linear fit of the data is performed and the rate is calculated in mOD/min. DMSO is only present during experiments involving inhibitors, buffer is used to make up the volume to 100 μl in the other experiments.
For determination of enzyme inhibition constants (Ki) or the mode of inhibition (competitive, uncompetitive or noncompetitive), the rate data determined in the enzyme assays at varying inhibitor concentrations are computer-fit to standard enzyme kinetic equations (see I. H. Segel, Enzyme Kinetics, Wiley-Interscience, 1975).

| Ki | Compound |
| --- | --- |
| 140 nM | O=C[C@H](CC(=O)O)NC(=O)[C@@H]1CCCN2C(=O)CC[C@H](NC(=O)/C=C/c3ccncc3)C(=O)N12 [Compound 472] |
| 50 nM | C[S+](CC(=O)[C@H](CC(=O)O)NC(=O)[C@@H]1CCCN2C(=O)CC[C@H](NC(=O)c3ccccc3)C(=O)N12)Cc1ccccc1Cl (stereo partly shown) [Compound 281] |
| 300 nM | CC(=O)N1C[C@H](NC(=O)c2ccc3ccccc3n2)C(=O)N(CC(=O)N[C@H](C=O)CC(=O)O)c2ccccc21 [Compound 619] |
| 380 nM | NS(=O)(=O)c1ccc(C(=O)N[C@H]2CCC(=O)N3CCC[C@@H](C(=O)N[C@H](C=O)CC(=O)O)N3C2=O)cc1 [Compound 478] |
| 85 nM | CC(=O)c1ccc(C(=O)N[C@H]2CCC(=O)N3CCC[C@@H](C(=O)N[C@H](C=O)CC(=O)O)N3C2=O)cc1 [Compound 474] |
| 1400 nM | CC(=O)N1C[C@H](NC(=O)O[C@H]2CCOC2)C(=O)N(CC(=O)N[C@H](C=O)CC(=O)O)c2ccccc21 [Compound 634] |

Same assay, conditions: Table 17

| Ki | Compound |
| --- | --- |
| 170 nM | O=C[C@H](CC(=O)O)NC(=O)[C@@H]1CCCN2C(=O)CCN(NC(=O)Cc3ccc4c(c3)OCO4)C(=O)N12 [Compound 1121] |
| 215 nM | O=C[C@H](CC(=O)O)NC(=O)[C@@H]1CCCN2C(=O)CCN(NC(=O)/C=C/c3ccc4c(c3)OCO4)C(=O)N12 [Compound 1116] |
| 95 nM | O=C[C@H](CC(=O)O)NC(=O)[C@@H]1CCCN2C(=O)CCN(NC(=O)C(=O)Nc3ccc(Cl)cc3)C(=O)N12 [Compound 1120] |
| 125 nM | O=C[C@H](CC(=O)O)NC(=O)[C@@H]1CCCN2C(=O)CCN(NC(=O)CCc3ccc4c(c3)OCO4)C(=O)N12 [Compound 1114] |
| 45 nM | COc1ccc(C(=O)C(=O)NN2CCC(=O)N3CCC[C@@H](C(=O)N[C@H](C=O)CC(=O)O)N3C2=O)cc1 [Compound 1110] |
| 65 nM | O=C[C@H](CC(=O)O)NC(=O)[C@@H]1CCCN2C(=O)CCN(NC(=O)C(=O)c3cccs3)C(=O)N12 [Compound 1107] |

Continued, molecule first:

| Compound | Ki |
| --- | --- |
| CC(=O)NCC(=O)N1C[C@H](NC(=O)c2cccc3ccccc23)C(=O)N(CC(=O)N[C@H](C=O)CC(=O)O)c2ccccc21 [Compound 645, (3S)-3-[(3S)-2-Oxo-3-(1-naphthoyl)amino-5-(2-acetamido)acetyl-2,3,4,5-tetrahydro-1H-1,5-benzodiazepine-1-acetylamino]-4-oxo-butyric acid] | 150 nM |
| CC(=O)N1C[C@H](NC(=O)CCc2ccc3c(c2)OCO3)C(=O)N(CC(=O)N[C@H](C=O)CC(=O)O)c2ccccc21 [Compound 707] | 180 nM |

Same assay, conditions: Table 27

| Ki | Compound |
| --- | --- |
| 0.5 nM | O=C[C@H](CC(=O)O)NC(=O)CN1C(=O)[C@@H](NC(=O)c2nccc3ccccc23)CN(C(=O)CO)c2cc(F)ccc21 [Compound 696-1, (3S)-3-[(3S)-2-oxo-3-isoquinolin-1-oylamino-5-hydroxyacetyl-2,3,4,5-tetrahydro-7-fluoro-1H-1,5-benzodiazepine-1-acetylamino]-4-oxobutyric acid] |
| 300 nM | CC(=O)O[C@@H](C)C(=O)N1C[C@H](NC(=O)c2cc(C)c(O)c(C)c2)C(=O)N(CC(=O)N[C@H](C=O)CC(=O)O)c2ccccc21 [Compound 726] |

From US20120165319A1, “INHIBITORS OF INTERLEUKIN-1 BETA CONVERTING ENZYME” (VERTEX PHARMACEUTICALS INCORPORATED, priority 1995, published 2012)
